These are literature values, as cited in US20240082165A1, “METHODS AND COMPOSITIONS FOR PRECISION RELEASE OF PROBIOTICS TO IMPROVE HUMAN HEALTH” (SEED HEALTH INC., priority 2021, published 2024).

For data set [1] the following is noted: synthesized ligand, mice.
For data set [2] the following is noted: delivered directly in the colon, overweight individuals.

For the compound M-tri-Lys, the protection from colitis result in data set [1] is “protected mice from colitis in a NOD2-dependent but MyD88-independent manner”.

As to `CCC(=O)O` [propionate], the “energy intake, adiposity, liver lipid, plasma PYY and GLP-1” value in data set [2] was “reduced energy intake, adiposity, and lipid liver content, and increased plasma levels of peptide YY (PYY) and glucagon-like peptide 1 (GLP-1)”.
